# Measurements: US9284272B2, “Inhibitors of histone methyltransferase G9a” (AbbVie Inc., priority 2014, dated 2016)
# Values joined by “and” are separate entries in the source; they are usually repeats but may differ in a detail not shown here. Equal entries are not always repeated. Where two headings read alike, the source gives them in different places.
# Key:
# [1] = Cytotoxicity, CellTiter Glo; assay type: cell-based; details: human, MV4;11 cells, 5-day proliferation
# [2] = Cytotoxicity, CellTiter Glo; assay type: cell-based; details: human, KMS12 cells, 5-day proliferation
# [3] = Cytotoxicity, CellTiter Glo; assay type: cell-based; details: human, Kasume-1 cells, 5-day proliferation
# [4] = Cytotoxicity, CellTiter Glo; assay type: cell-based; details: human, KMS11 cells, 5-day proliferation
# [5] = Cytotoxicity, CellTiter Glo; assay type: cell-based; details: human, ZR7350 cells, 7-day proliferation, neural crest derived lines
# [6] = Cytotoxicity, CellTiter Glo; assay type: cell-based; details: human, IMR-32 cells, 12-day proliferation, neural crest derived lines
# [7] = Cytotoxicity, CellTiter Glo; assay type: cell-based; details: human, OPM2 cells, 5-day proliferation
# [8] = Cytotoxicity, CellTiter Glo; assay type: cell-based; details: human, Calu6 cells, 5-day proliferation
# [9] = Cytotoxicity, CellTiter Glo; assay type: cell-based; details: human, RPMI8226 cells, 5-day proliferation
# [10] = Cytotoxicity, CellTiter Glo; assay type: cell-based; details: human, US2OS cells, 7-day proliferation, neural crest derived lines
# [11] = test system: H3K9me2; experiment: Cellular immunostaining (In-Cell Western), H3K9Me2 antibody immunofluorescence in PC3 cells; assay type: cell-based, human; details: for H3K9me2 % inhibition, single well of triplicate / inhibition at 0.03 µM / inhibition at 0.1 µM / inhibition at 0.3 µM / inhibition at 1 µM / inhibition at 3 µM: 72 hours; for inhibition at 0.03 µM / inhibition at 0.1 µM / inhibition at 0.3 µM / inhibition at 1 µM / inhibition at 3 µM: Homo sapiens, PC-3, 72 h
# Method: For comparison, the known G9a inhibitor UNC0638 (see structure in FIG. 1) was evaluated in this study concurrently.
# Human PC3 cells (ATCC, Manassas, Va.) were grown in RPMI+10% Fetal Bovine Serum and plated at 5,000 cells per well in a 96-well plate. The following day compounds and DMSO controls were added in triplicate at the indicated concentrations. Cells were fixed following incubation at 37° C. for 72 hours with 10% formaldehyde and then permeabilized with 0.1% Triton X-100. Cells were then washed with PBS and blocked with 0.1% BSA/PBS solution. Mouse anti-H3K9me2 (1:200, AbCam #1220, Cambridge, Mass.) and rabbit anti-Histone H3 (1:500, Cell Signaling Technology #4499, Danvers, Mass.) primary antibodies in 0.3% BSA were then added together to each well and incubated overnight at 4° C. The following day cells were washed in PBS-T (PBS with 0.1% Tween) followed by addition of anti-mouse (IR800) and anti-rabbit (IR700) secondary antibodies (LI-COR Biosciences, Lincoln, Nebr.) and incubated for one hour at room temperature. Cells were then washed with PBS-T followed by PBS and liquid was removed from all wells. The plate was scanned using both the 700 nm (anti-rabbit detection) and 800 nm (anti-mouse detection) channels on the Odyssey Imaging System (LI-COR Biosciences, Lincoln, Nebr.). Data was quantified using the LI-COR imaging suite and graphed as % inhibition H3K9me2/total H3/well compared to DMSO control wells. Wells treated in triplicate were averaged for each indicated concentration and error bars represent the standard deviation (n=3).
# [12] = Cytotoxicity, CellTiter Glo; assay type: cell-based; details: human, THP-1 cells, 5-day proliferation
# [13] = Cytotoxicity, CellTiter Glo; assay type: cell-based; details: human, H929 cells, 5-day proliferation
# [14] = test system: human peripheral blood mononucleated cells (PBMCs); experiment: Viability of PBMCs (Caspase-Glo 3/7, CellTiter Glo); assay type: cell-based; details: 0-10 uM, 48 h
# Method: Following treatment, Caspase 3/7 activity (i.e., a marker of apoptosis) was assessed by the Caspase-Glo 3/7 assay system (FIG. 7A), and cell viability was assessed by CellTiter Glo assay (FIG. 7B).
# [15] = Cytotoxicity, CellTiter Glo; assay type: cell-based; details: human, G-401 cells, 7-day proliferation, neural crest derived lines
# [16] = Cytotoxicity, CellTiter Glo; assay type: cell-based; details: human, PA-1 cells, 7-day proliferation, neural crest derived lines
# [17] = Cytotoxicity, CellTiter Glo; assay type: cell-based; details: human, LN229 cells, 5-day proliferation
# [18] = in vitro; assay type: cell-based; details: PH-1; 7-day proliferation, neural crest derived lines; read-out: IC50 cytotoxicity
# [19] = Cytotoxicity, CellTiter Glo; assay type: cell-based; details: human, SK-N-MC cells, 7-day proliferation, neural crest derived lines
# [20] = Cytotoxicity, CellTiter Glo; assay type: cell-based; details: human, SKBR3 cells, 5-day proliferation
# [21] = Cytotoxicity, CellTiter Glo; assay type: cell-based; details: human, MHH-65-1 cells, 7-day proliferation, neural crest derived lines
# [22] = Cytotoxicity, CellTiter Glo; assay type: cell-based; details: human, DaoY cells, 7-day proliferation, neural crest derived lines
# [23] = Cytotoxicity, CellTiter Glo; assay type: cell-based; details: human, LNCap cells, 5-day proliferation
# [24] = Cytotoxicity, CellTiter Glo; assay type: cell-based; details: human, K562 cells, 5-day proliferation
# [25] = Cytotoxicity, CellTiter Glo; assay type: cell-based; details: human, HL-60 cells, 5-day proliferation
# [26] = Cytotoxicity, CellTiter Glo; assay type: cell-based; details: human, CAPO-ES1 cells, 7-day proliferation, neural crest derived lines
# [27] = Cytotoxicity, CellTiter Glo; assay type: cell-based; details: human, DU145 cells, 5-day proliferation
# [28] = Cytotoxicity, CellTiter Glo; assay type: cell-based; details: A-201 cells, 12-day proliferation, neural crest derived lines
# [29] = Cytotoxicity, CellTiter Glo; assay type: cell-based; details: human, L-363 cells, 5-day proliferation
# [30] = Cytotoxicity, CellTiter Glo; assay type: cell-based; details: human, 22RV1 cells, 5-day proliferation
# [31] = Cytotoxicity, CellTiter Glo; assay type: cell-based; details: human, RS4;11 cells, 5-day proliferation
# [32] = Cytotoxicity, CellTiter Glo; assay type: cell-based; details: human, TC-71 cells, 7-day proliferation, neural crest derived lines
smiles,measurement,setting,value
"COc1cc2c(NC3CCN(C(C)C)CC3)nc(C3CCCCC3)nc2cc1OCCCN1CCCC1 [UNC0638, reference compound]",IC50 at 5 day,[1],1700 nM
same,IC50 at 5 day,[2],4400 nM
same,IC50 at 5 day,[3],1100 nM
same,IC50 at 5 day,[4],4000 nM
same,IC50 at 7 day,[5],1200 nM
same,IC50 at 12 day,[6],100 nM
same,IC50 at 5 day,[7],5600 nM
same,IC50 at 5 day,[8],500 nM
same,IC50 at 5 day,[9],5100 nM
same,IC50 at 7 day,[10],500 nM
same,reduction of cellular levels of H3K9Me2,[11]; 3 μM,~50%
same,"H3K9me2 % inhibition, single well of triplicate",[11]; 0.03 uM,17.8107% and 15.8006%
same,"H3K9me2 % inhibition, single well of triplicate",[11]; 0.1 uM,27.68% and 25.03%
same,"H3K9me2 % inhibition, single well of triplicate",[11]; 0.3 uM,41.05% and 40.37%
same,"H3K9me2 % inhibition, single well of triplicate",[11]; 1 uM,43.21% and 47.35%
same,"H3K9me2 % inhibition, single well of triplicate",[11]; 3 uM,48.22% and 49.38%
same,inhibition at 0.03 µM,"[11]; 0.03 uM, n=3, read-out: H3K9me2 % inhibition, average",14.6%
same,inhibition at 0.03 µM,"[11]; 0.03 uM, read-out: H3K9me2 % inhibition, single well of triplicate",10%
same,inhibition at 0.1 µM,"[11]; 0.1 uM, n=3, read-out: H3K9me2 % inhibition, average",25.8%
same,inhibition at 0.1 µM,"[11]; 0.1 uM, read-out: H3K9me2 % inhibition, single well of triplicate",24.6%
same,inhibition at 0.3 µM,"[11]; 0.3 uM, n=3, read-out: H3K9me2 % inhibition, average",40.8%
same,inhibition at 0.3 µM,"[11]; 0.3 uM, read-out: H3K9me2 % inhibition, single well of triplicate",41.1%
same,inhibition at 1 µM,"[11]; 1 uM, n=3, read-out: H3K9me2 % inhibition, average",45.2%
same,inhibition at 1 µM,"[11]; 1 uM, read-out: H3K9me2 % inhibition, single well of triplicate",44.9%
same,inhibition at 3 µM,"[11]; 3 uM, n=3, read-out: H3K9me2 % inhibition, average",48.5%
same,inhibition at 3 µM,"[11]; 3 uM, read-out: H3K9me2 % inhibition, single well of triplicate",47.8%
same,cell viability as measured by total histone H3,[11]; versus no treatment,No difference in cell viability
same,IC50 at 5 day,[12],4900 nM
same,IC50 at 5 day,[13],4600 nM
same,effect on PBMC viability (Caspase 3/7 activity and CellTiter Glo),[14],did at higher concentrations
same,IC50 at 7 day,[15],400 nM
same,IC50 at 7 day,[16],200 nM
same,IC50 at 5 day,[17],500 nM
same,IC50 at 7 day,[18],4400 nM
same,IC50 at 7 day,[19],200 nM
same,IC50 at 5 day,[20],600 nM
same,IC50 at 7 day,[21],1900 nM
same,IC50 at 7 day,[22],100 nM
same,IC50 at 5 day,[23],300 nM
same,IC50 at 5 day,[24],5300 nM
same,IC50 at 5 day,[25],6500 nM
same,IC50 at 7 day,[26],1200 nM
same,IC50 at 5 day,[27],700 nM
same,IC50 at 12 day,[28],600 nM
same,IC50 at 5 day,[29],3900 nM
same,IC50 at 5 day,[30],200 nM
same,IC50 at 5 day,[31],3100 nM
same,IC50 at 7 day,[32],600 nM
